{"source": "patent US9144229B2", "about": "“Tissue specific expression of antibodies in chickens” (Synageva BioPharma Corp., priority 2002, dated 2015)", "test_system": "chicken embryonic stem cells", "test": "Titration kill curve of chicken ES cells under puromycin or neomycin selection", "format": "cell-based", "set-up": "key to Morphology of cES cells: ES cells are present.; ES cells are differentiated.; gone: no morphologically recognizable cells are present", "method": "In a preferred embodiment, the concentration of puromycin required for selecting transfected cells is calculated as a titration kill curve. Titration kill curves for chicken embryonic stem cells are established by exposing cells in culture to puromycin concentrations varying from 0.0 to 1.0 μg/ml for 10 days (Table 7) and neomycin concentrations varying from 0.0 to 200 μg/ml (Table 8). The medium is changed every 2 days and fresh puromycin or neomycin is added. […] Puromycin concentrations of 0.3-1.0 μg/ml are used for selection of the transfected cultures. Neomycin concentrations over 40 μg/ml eliminated all cES cells within 7 days (Table 8)."}
{"compound": "COc1ccc(C[C@H](N)C(=O)N[C@H]2[C@@H](O)[C@H](n3cnc4c(N(C)C)ncnc43)O[C@@H]2CO)cc1", "note": "[puromycin]", "values": [{"measurement": "presence of ES cells", "setting": "0.3 μg/ml puromycin, 3 changes of medium over a six day period", "result": "absent from all wells"}, {"measurement": "Morphology of cES cells", "setting": "puromycin 0.1 μg/ml, day 1", "result": "ES"}, {"measurement": "Morphology of cES cells", "setting": "puromycin 0.1 μg/ml, day 2", "result": "ES"}, {"measurement": "Morphology of cES cells", "setting": "puromycin 0.1 μg/ml, day 3", "result": "ES"}, {"measurement": "Morphology of cES cells", "setting": "puromycin 0.1 μg/ml, day 4", "result": "ES"}, {"measurement": "Morphology of cES cells", "setting": "puromycin 0.1 μg/ml, day 5", "result": "ES"}, {"measurement": "Morphology of cES cells", "setting": "puromycin 0.1 μg/ml, day 6", "result": "ES"}, {"measurement": "Morphology of cES cells", "setting": "puromycin 0.1 μg/ml, day 7", "result": "ES"}, {"measurement": "Morphology of cES cells", "setting": "puromycin 0.1 μg/ml, day 8", "result": "ES"}, {"measurement": "Morphology of cES cells", "setting": "puromycin 0.1 μg/ml, day 9", "result": "ES"}, {"measurement": "Morphology of cES cells", "setting": "puromycin 0.1 μg/ml, day 10", "result": "ES"}, {"measurement": "Morphology of cES cells", "setting": "puromycin 0.2 μg/ml, day 1", "result": "ES"}, {"measurement": "Morphology of cES cells", "setting": "puromycin 0.2 μg/ml, day 2", "result": "ES"}, {"measurement": "Morphology of cES cells", "setting": "puromycin 0.2 μg/ml, day 3", "result": "ES"}, {"measurement": "Morphology of cES cells", "setting": "puromycin 0.2 μg/ml, day 4", "result": "ES"}, {"measurement": "Morphology of cES cells", "setting": "puromycin 0.2 μg/ml, day 5", "result": "ES"}, {"measurement": "Morphology of cES cells", "setting": "puromycin 0.2 μg/ml, day 6", "result": "ES"}, {"measurement": "Morphology of cES cells", "setting": "puromycin 0.2 μg/ml, day 7", "result": "ES"}, {"measurement": "Morphology of cES cells", "setting": "puromycin 0.2 μg/ml, day 8", "result": "ES"}, {"measurement": "Morphology of cES cells", "setting": "puromycin 0.2 μg/ml, day 9", "result": "ES"}, {"measurement": "Morphology of cES cells", "setting": "puromycin 0.2 μg/ml, day 10", "result": "ES"}, {"measurement": "Morphology of cES cells", "setting": "puromycin 0.25 μg/ml, day 1", "result": "ES"}, {"measurement": "Morphology of cES cells", "setting": "puromycin 0.25 μg/ml, day 2", "result": "ES"}, {"measurement": "Morphology of cES cells", "setting": "puromycin 0.25 μg/ml, day 3", "result": "ES"}, {"measurement": "Morphology of cES cells", "setting": "puromycin 0.25 μg/ml, day 4", "result": "ES"}, {"measurement": "Morphology of cES cells", "setting": "puromycin 0.25 μg/ml, day 5", "result": "ES"}, {"measurement": "Morphology of cES cells", "setting": "puromycin 0.25 μg/ml, day 6", "result": "diff"}, {"measurement": "Morphology of cES cells", "setting": "puromycin 0.25 μg/ml, day 7", "result": "diff"}, {"measurement": "Morphology of cES cells", "setting": "puromycin 0.25 μg/ml, day 8", "result": "diff/"}, {"measurement": "Morphology of cES cells", "setting": "puromycin 0.25 μg/ml, day 9", "result": "diff/"}, {"measurement": "Morphology of cES cells", "setting": "puromycin 0.25 μg/ml, day 10", "result": "diff/"}, {"measurement": "Morphology of cES cells", "setting": "puromycin 0.3 μg/ml, day 1", "result": "ES"}, {"measurement": "Morphology of cES cells", "setting": "puromycin 0.3 μg/ml, day 2", "result": "ES"}, {"measurement": "Morphology of cES cells", "setting": "puromycin 0.3 μg/ml, day 3", "result": "diff"}, {"measurement": "Morphology of cES cells", "setting": "puromycin 0.3 μg/ml, day 4", "result": "diff/"}, {"measurement": "Morphology of cES cells", "setting": "puromycin 0.3 μg/ml, day 5", "result": "diff/"}, {"measurement": "Morphology of cES cells", "setting": "puromycin 0.3 μg/ml, day 6", "result": "gone"}, {"measurement": "Morphology of cES cells", "setting": "puromycin 0.3 μg/ml, day 7", "result": "gone"}, {"measurement": "Morphology of cES cells", "setting": "puromycin 0.3 μg/ml, day 8", "result": "gone"}, {"measurement": "Morphology of cES cells", "setting": "puromycin 0.3 μg/ml, day 9", "result": "gone"}, {"measurement": "Morphology of cES cells", "setting": "puromycin 0.3 μg/ml, day 10", "result": "gone"}, {"measurement": "Morphology of cES cells", "setting": "puromycin 0.4 μg/ml, day 1", "result": "ES"}, {"measurement": "Morphology of cES cells", "setting": "puromycin 0.4 μg/ml, day 2", "result": "diff"}, {"measurement": "Morphology of cES cells", "setting": "puromycin 0.4 μg/ml, day 3", "result": "gone"}, {"measurement": "Morphology of cES cells", "setting": "puromycin 0.4 μg/ml, day 4", "result": "gone"}, {"measurement": "Morphology of cES cells", "setting": "puromycin 0.4 μg/ml, day 5", "result": "gone"}, {"measurement": "Morphology of cES cells", "setting": "puromycin 0.4 μg/ml, day 6", "result": "gone"}, {"measurement": "Morphology of cES cells", "setting": "puromycin 0.4 μg/ml, day 7", "result": "gone"}, {"measurement": "Morphology of cES cells", "setting": "puromycin 0.4 μg/ml, day 8", "result": "gone"}, {"measurement": "Morphology of cES cells", "setting": "puromycin 0.4 μg/ml, day 9", "result": "gone"}, {"measurement": "Morphology of cES cells", "setting": "puromycin 0.4 μg/ml, day 10", "result": "gone"}, {"measurement": "Morphology of cES cells", "setting": "puromycin 0.5 μg/ml, day 1", "result": "diff"}, {"measurement": "Morphology of cES cells", "setting": "puromycin 0.5 μg/ml, day 2", "result": "gone"}, {"measurement": "Morphology of cES cells", "setting": "puromycin 0.5 μg/ml, day 3", "result": "Gone"}, {"measurement": "Morphology of cES cells", "setting": "puromycin 0.5 μg/ml, day 4", "result": "gone"}, {"measurement": "Morphology of cES cells", "setting": "puromycin 0.5 μg/ml, day 5", "result": "gone"}, {"measurement": "Morphology of cES cells", "setting": "puromycin 0.5 μg/ml, day 6", "result": "gone"}, {"measurement": "Morphology of cES cells", "setting": "puromycin 0.5 μg/ml, day 7", "result": "gone"}, {"measurement": "Morphology of cES cells", "setting": "puromycin 0.5 μg/ml, day 8", "result": "gone"}, {"measurement": "Morphology of cES cells", "setting": "puromycin 0.5 μg/ml, day 9", "result": "gone"}, {"measurement": "Morphology of cES cells", "setting": "puromycin 0.5 μg/ml, day 10", "result": "gone"}, {"measurement": "Morphology of cES cells", "setting": "puromycin 0.6 μg/ml, day 1", "result": "diff"}, {"measurement": "Morphology of cES cells", "setting": "puromycin 0.6 μg/ml, day 2", "result": "gone"}, {"measurement": "Morphology of cES cells", "setting": "puromycin 0.6 μg/ml, day 3", "result": "gone"}, {"measurement": "Morphology of cES cells", "setting": "puromycin 0.6 μg/ml, day 4", "result": "gone"}, {"measurement": "Morphology of cES cells", "setting": "puromycin 0.6 μg/ml, day 5", "result": "gone"}, {"measurement": "Morphology of cES cells", "setting": "puromycin 0.6 μg/ml, day 6", "result": "gone"}, {"measurement": "Morphology of cES cells", "setting": "puromycin 0.6 μg/ml, day 7", "result": "gone"}, {"measurement": "Morphology of cES cells", "setting": "puromycin 0.6 μg/ml, day 8", "result": "gone"}, {"measurement": "Morphology of cES cells", "setting": "puromycin 0.6 μg/ml, day 9", "result": "gone"}, {"measurement": "Morphology of cES cells", "setting": "puromycin 0.6 μg/ml, day 10", "result": "gone"}, {"measurement": "Morphology of cES cells", "setting": "puromycin 0.7 μg/ml, day 1", "result": "diff"}, {"measurement": "Morphology of cES cells", "setting": "puromycin 0.7 μg/ml, day 2", "result": "gone"}, {"measurement": "Morphology of cES cells", "setting": "puromycin 0.7 μg/ml, day 3", "result": "gone"}, {"measurement": "Morphology of cES cells", "setting": "puromycin 0.7 μg/ml, day 4", "result": "gone"}, {"measurement": "Morphology of cES cells", "setting": "puromycin 0.7 μg/ml, day 5", "result": "gone"}, {"measurement": "Morphology of cES cells", "setting": "puromycin 0.7 μg/ml, day 6", "result": "gone"}, {"measurement": "Morphology of cES cells", "setting": "puromycin 0.7 μg/ml, day 7", "result": "gone"}, {"measurement": "Morphology of cES cells", "setting": "puromycin 0.7 μg/ml, day 8", "result": "gone"}, {"measurement": "Morphology of cES cells", "setting": "puromycin 0.7 μg/ml, day 9", "result": "gone"}, {"measurement": "Morphology of cES cells", "setting": "puromycin 0.7 μg/ml, day 10", "result": "gone"}, {"measurement": "Morphology of cES cells", "setting": "puromycin 0.8 μg/ml, day 1", "result": "gone"}, {"measurement": "Morphology of cES cells", "setting": "puromycin 0.8 μg/ml, day 2", "result": "gone"}, {"measurement": "Morphology of cES cells", "setting": "puromycin 0.8 μg/ml, day 3", "result": "gone"}, {"measurement": "Morphology of cES cells", "setting": "puromycin 0.8 μg/ml, day 4", "result": "gone"}, {"measurement": "Morphology of cES cells", "setting": "puromycin 0.8 μg/ml, day 5", "result": "gone"}, {"measurement": "Morphology of cES cells", "setting": "puromycin 0.8 μg/ml, day 6", "result": "gone"}, {"measurement": "Morphology of cES cells", "setting": "puromycin 0.8 μg/ml, day 7", "result": "gone"}, {"measurement": "Morphology of cES cells", "setting": "puromycin 0.8 μg/ml, day 8", "result": "gone"}, {"measurement": "Morphology of cES cells", "setting": "puromycin 0.8 μg/ml, day 9", "result": "gone"}, {"measurement": "Morphology of cES cells", "setting": "puromycin 0.8 μg/ml, day 10", "result": "gone"}]}
